These results are taken from US5925731A, “Endothelin antagonist peptides” (Takeda Chemical Industries, Ltd., priority 1995, dated 1999).

The target of assay [1] is T1, human endothelin receptor ETB (Homo sapiens, UniProt P24530).
T1 construct: expressed in transfected cells; host or cells: CHO cells (membrane fraction)
T1 sequence (P24530 27-442): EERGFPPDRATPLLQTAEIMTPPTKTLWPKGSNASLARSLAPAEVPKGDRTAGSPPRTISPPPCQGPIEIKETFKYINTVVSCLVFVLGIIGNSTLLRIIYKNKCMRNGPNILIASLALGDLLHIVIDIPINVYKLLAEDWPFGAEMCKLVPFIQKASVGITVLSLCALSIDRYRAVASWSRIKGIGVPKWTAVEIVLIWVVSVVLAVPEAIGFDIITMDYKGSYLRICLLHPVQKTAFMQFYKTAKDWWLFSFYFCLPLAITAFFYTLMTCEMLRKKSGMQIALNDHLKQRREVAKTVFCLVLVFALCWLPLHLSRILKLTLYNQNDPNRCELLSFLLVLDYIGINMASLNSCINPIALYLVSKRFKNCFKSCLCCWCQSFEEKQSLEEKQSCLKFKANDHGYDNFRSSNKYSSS
The assay is described as follows: Radioiodinated endothelin-1 binding to membrane fraction of CHO cells expressing human endothelin receptor ETB. The conditions noted are these: radioactive-iodine-labeled endothelin-1, 25° C., one hour. On the procedure: (§1) The membrane fraction of CHO cells on which human endothelin receptor (ETA or ETB) was expressed was diluted to 0.15 mg/ml with an assaying buffer and dispensed to assaying tubes at 100 μl per tube. To this membrane fraction suspension were added 2 μl of a solution of endothelin-1 labeled with radioactive iodine (5 nM) and 3 μl of a 50% dimethyl sulfoxide of the test compound, followed by incubation at 25° C. for one hour. The membrane fraction suspension was diluted with 900 μl of an ice-cooled assaying buffer and centrifuged at 12,000×G for 10 minutes to separate supernatant and precipitate. The precipitate contained cell membranes and endothelin receptors embedded therein. The receptor-bound endothelin, labeled with radioactive iodine, was also recovered in the precipitate. The radioactive iodine in this precipitate was counted, using a gamma ray counter, to determine the amount of radioactive-iodine-labeled endothelin-1 bound to the endothelin receptors. The results of the quantitative determination were shown in the respective IC50 (nm) values in the following Table 2.

Assay [2] concerns the target T2, human endothelin receptor ETA (Homo sapiens, UniProt P25101).
T2 construct: expressed in transfected cells; host or cells: CHO cells (membrane fraction)
T2 sequence (P25101 21-427): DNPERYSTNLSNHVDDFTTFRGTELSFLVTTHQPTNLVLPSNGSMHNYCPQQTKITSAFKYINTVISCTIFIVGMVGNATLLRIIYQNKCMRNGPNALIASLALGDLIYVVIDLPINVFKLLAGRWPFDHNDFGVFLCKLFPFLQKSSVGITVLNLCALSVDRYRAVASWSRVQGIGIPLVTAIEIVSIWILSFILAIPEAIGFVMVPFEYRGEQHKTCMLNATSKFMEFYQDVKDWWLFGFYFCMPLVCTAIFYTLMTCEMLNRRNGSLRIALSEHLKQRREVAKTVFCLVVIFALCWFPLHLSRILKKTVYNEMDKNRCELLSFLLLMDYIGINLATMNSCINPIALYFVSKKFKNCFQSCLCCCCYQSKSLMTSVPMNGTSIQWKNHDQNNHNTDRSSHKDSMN
Briefly: Radioiodinated endothelin-1 binding to membrane fraction of CHO cells expressing human endothelin receptor ETA. The conditions noted are these: radioactive-iodine-labeled endothelin-1, 25° C., one hour. On the procedure:
as §1

SMILES strings stand for the structures. *1 amine or outer side, *2 acyl side, *3 side chain or, on linkers, in order; H or OH if unused. Where a SMILES comes first, the peptide text is derived from it. [ ]: non-standard residue; d: D form. The star is where a group is joined. Piperazinyl(4-(2-MeOPh)) = COc1ccccc1N1CCN(*)CC1; Piperazinyl(4-Ph) = c1ccc(N2CCN(*)CC2)cc1; X3 = COc1ccc(C)cc1N1CCN(*)CC1; X2 = COc1cccc(N2CCN(*)CC2)c1; dNle = CCCC[C@@H](N)C(=O)O; X4 = Fc1ccccc1N1CCN(*)CC1; Nle = CCCC[C@H](N)C(=O)O; CO = O=C([*:1])[*:2]; X1 = C1CCCN(*)CC1; Moc = COC(=O)*; For = O=C*

By IC50 is commonly meant the concentration that inhibits the measured activity by half.

On to `CCCC[C@@H](NC(=O)[C@@H](Cc1cn(C(=O)OC)c2ccccc12)NC(=O)[C@H](CC(C)C)NC(=O)N1CCCCCC1)C(=O)N[C@H](CC(=O)N1CCN(c2cc(C)ccc2OC)CC1)C(=O)O` [W. Ex. 7, Hexamethyleniminocarbonyl-Leu-D-Trp(COOMe)-D-Nle-D-Asp(2MeO-5MePhp)] ({X1-CO}-L[dW](Moc)[dNle][dD](X3)-OH), for which the IC50 in assay [1] worked out at 110 nM; in assay [2], 49 nM.
In the same order, the values of `CCCC[C@@H](NC(=O)[C@@H](Cc1cn(C(=O)OC)c2ccccc12)NC(=O)[C@H](CC(C)C)NC(=O)N1CCCCCC1)C(=O)N[C@@H](CC(=O)N1CCN(c2ccccc2)CC1)C(=O)O` [W. Ex. 3, Hexamethyleniminocarbonyl-Leu-D-Trp(COOMe)-D-Nle-Asp (Php)] ({X1-CO}-L[dW](Moc)[dNle]D(Piperazinyl(4-Ph))-OH) are 34 nM and 45 nM.
The like results for `CCCC[C@@H](NC(=O)[C@@H](Cc1cn(C(=O)OC)c2ccccc12)NC(=O)[C@H](CC(C)C)NC(=O)N1CCCCCC1)C(=O)N[C@H](CC(=O)N1CCN(c2ccccc2OC)CC1)C(=O)O` [W. Ex. 5, Hexamethyleniminocarbonyl-Leu-D-Trp(COOMe)-D-Nle-D-Asp (2MeOPhp)] ({X1-CO}-L[dW](Moc)[dNle][dD](Piperazinyl(4-(2-MeOPh)))-OH) were, in that order, 7.9 nM and 7.1 nM.
With `CCCC[C@@H](NC(=O)[C@@H](Cc1cn(C(=O)OC)c2ccccc12)NC(=O)[C@H](CC(C)C)NC(=O)N1CCCCCC1)C(=O)N[C@H](CC(=O)N1CCN(c2ccccc2)CC1)C(=O)O` [W. Ex. 2, Hexamethyleniminocarbonyl-Leu-D-Trp(COOMe)-D-Nle-D-Asp(Php)] ({X1-CO}-L[dW](Moc)[dNle][dD](Piperazinyl(4-Ph))-OH), the concentration for half-maximal inhibition (IC50) came out at 18 nM in assay [1] and 11 nM in assay [2].
The like results for `CCCC[C@@H](NC(=O)[C@@H](Cc1cn(C(=O)OC)c2ccccc12)NC(=O)[C@@H](NC(=O)N1CCCCCC1)[C@@H](C)CC)C(=O)N[C@H](CC(=O)N1CCN(c2ccccc2)CC1)C(=O)O` [W. Ex. 9, Hexamethyleniminocarbonyl-Ile-D-Trp(COOMe)-D-Nle-D-Asp(Php)] ({X1-CO}-I[dW](Moc)[dNle][dD](Piperazinyl(4-Ph))-OH) were, in that order, 15 nM and 21 nM.
In the same order, the values of `CCCC[C@@H](NC(=O)[C@@H](Cc1cn(C(=O)OC)c2ccccc12)NC(=O)[C@H](CC(C)C)NC(=O)N1CCCCCC1)C(=O)N[C@H](CC(=O)N1CCN(c2ccccc2F)CC1)C(=O)O` [W. Ex. 8, Hexamethyleniminocarbonyl-Leu-D-Trp(COOMe)-D-Nle-D-Asp (2FPhp)] ({X1-CO}-L[dW](Moc)[dNle][dD](X4)-OH) are 29 nM and 18 nM.
`CCCC[C@@H](NC(=O)[C@@H](Cc1cn(C=O)c2ccccc12)NC(=O)[C@H](CC(C)C)NC(=O)N1CCCCCC1)C(=O)N[C@H](CC(=O)N1CCN(c2ccccc2)CC1)C(=O)O` [W. Ex. 1, Hexamethyleniminocarbonyl-Leu-D-Trp(CHO)-D-Nle-D-Asp(Php)] ({X1-CO}-L[dW](For)[dNle][dD](Piperazinyl(4-Ph))-OH): the 50% inhibitory concentration (IC50) in assay [1] was found to be 130 nM; in assay [2], 1.8 nM.
In the same order, the values of `CCCC[C@@H](NC(=O)[C@@H](Cc1cn(C(=O)OC)c2ccccc12)NC(=O)[C@H](CC(C)C)NC(=O)N1CCCCCC1)C(=O)N[C@H](CC(=O)N1CCN(c2cccc(OC)c2)CC1)C(=O)O` [W. Ex. 6, Hexamethyleniminocarbonyl-Leu-D-Trp(COOMe)-D-Nle-D-Asp (3MeOPhp)] ({X1-CO}-L[dW](Moc)[dNle][dD](X2)-OH) are 29 nM and 28 nM.
In the same order, the values of `CCCC[C@@H](NC(=O)[C@@H](Cc1cn(C(=O)OC)c2ccccc12)NC(=O)[C@H](CC(C)C)NC(=O)N1CCCCCC1)C(=O)N[C@H](CCC(=O)O)C(=O)N1CCN(c2ccccc2)CC1` [W. Ex. 4, Hexamethyleniminocarbonyl-Leu-D-Trp(COOMe)-D-Nle-D-Glu-Php] ({X1-CO}-L[dW](Moc)[dNle][dE]-{Piperazinyl(4-Ph)}) are 23 nM and 23 nM.
In the same order, the values of `CCCC[C@H](NC(=O)N1CCCCCC1)C(=O)N[C@H](Cc1cn(C(=O)OC)c2ccccc12)C(=O)N[C@H](CCCC)C(=O)N[C@H](CC(=O)N1CCN(c2ccccc2)CC1)C(=O)O` [W. Ex. 10, Hexamethyleniminocarbonyl-Nle-D-Trp(COOMe)-D-Nle-D-Asp(Php)] ({X1-CO}-[Nle][dW](Moc)[dNle][dD](Piperazinyl(4-Ph))-OH) are 75 nM and 34 nM.
